Patent publication US20150031572A1, “MEANS AND METHODS FOR ASSESSING NEURONAL TOXICITY” (priority 2012, published 2015)
Counter-ions that a name gives are not always drawn. Marks after values point to notes of the source that are not given here.

Experiment: Plasma metabolite profiling (GC-MS, LC-MS, SPE-LC-MS) of rats dosed once daily over 28 days; treatment ratios versus untreated control
Format: in vivo, rat
Settings: for 5-Oxoproline, plasma metabolite ratio versus control / Alanine, plasma metabolite ratio versus control / Arginine (second line of the table), plasma metabolite ratio versus control / Arginine, plasma metabolite ratio versus control / Citrulline, plasma metabolite ratio versus control / Glutamine, plasma metabolite ratio versus control / Proline, plasma metabolite ratio versus control / Tyrosine, plasma metabolite ratio versus control / Creatinine, ratio versus control: male rats; for 5-Oxoproline, plasma metabolite ratio versus control / Alanine, plasma metabolite ratio versus control / Arginine (second line of the table), plasma metabolite ratio versus control / Arginine, plasma metabolite ratio versus control / Citrulline, plasma metabolite ratio versus control / Glutamine, plasma metabolite ratio versus control / Proline, plasma metabolite ratio versus control / Tyrosine, plasma metabolite ratio versus control: high dose; for Creatinine, ratio versus control: Table 12a
In short: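 Male and female rats (5/sex/group) dosed once daily for 28 days; fasted anaesthetized animals bled retro-orbitally (EDTA plasma) on days 7, 14, 28, stored −80 °C under N2. Polar and lipid fractions profiled by GC-MS (derivatized), LC-MS/MRM; steroids by online SPE-LC-MS. Pool-normalized data; treatment ratios vs sex-matched controls, Welch test p-values.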

[1] = plasma, female rats, day 7, high dose, Table 5a
[2] = plasma, female rats, day 7, high dose, Table 5b
[3] = plasma, female rats, day 7, high dose, Table 6c
[4] = plasma, female rats, day 7, high dose, Table 6d
[5] = plasma, female rats, day 14, high dose, Table 5a
[6] = plasma, female rats, day 14, high dose, Table 5b
[7] = plasma, female rats, day 14, high dose, Table 6c
[8] = plasma, female rats, day 14, high dose, Table 6d
[9] = plasma, female rats, day 28, high dose, Table 5a
[10] = plasma, female rats, day 28, high dose, Table 5b
[11] = plasma, female rats, day 28, high dose, Table 6c
[12] = plasma, female rats, day 28, high dose, Table 6d
[13] = plasma, female rats, day 28, high dose, Table 6a
[14] = plasma, female rats, day 28, high dose, Table 6b
[15] = plasma, female rats, day 28, high dose, Table 8c
[16] = plasma, female rats, day 28, high dose, Table 8d

## OCCOCCN1CCN(C2=Nc3ccccc3Sc3ccccc32)CC1 [Quetiapine fumarate]
[1]
  3-Hydroxybutyrate, ratio versus control: 1.49*
  Histidine, ratio versus control: 1.31*
  Isoleucine, ratio versus control: 1.9*
  Leucine, ratio versus control: 1.98*
  Valine, ratio versus control: 1.49*
[2]
  4-Hydroxy-3-methoxyphenylglycol (HMPG), ratio versus control: 0.73*
  Glucose, ratio versus control: 0.94
  Lactate, ratio versus control: 0.45*
  Malate, ratio versus control: 0.67*
  Metanephrine, ratio versus control: 0.55*
  Pyruvate, ratio versus control: 0.37*
  Uric acid, ratio versus control: 0.92
[3]
  4-Hydroxysphinganine (t18:0, Phytosphingosine), total, ratio versus control: 1.03
  Docosahexaenoic acid (C22:cis[4,7,10,13,16,19]6), ratio versus control: 1.67*
  Docosapentaenoic acid (C22:cis[7,10,13,16,19]5), ratio versus control: 1.98*
  Phosphatidylcholine (C16:0,C16:0), ratio versus control: 1.11*
  Phosphatidylcholine No 02, ratio versus control: 1.05
  TAG (C16:0,C16:1), ratio versus control: 2.83*
  TAG (C16:0,C18:2), ratio versus control: 2.65*
  TAG (C18:2,C18:2), ratio versus control: 1.99*
  TAG (C18:2,C18:3), ratio versus control: 1.83*
  TAG (C18:3,C18:2,C18:1), ratio versus control: 2.04*
  TAG No 059, ratio versus control: 2.1*
[4]
  4-Hydroxyphenylpyruvate, ratio versus control: 0.61*
  Glycine, ratio versus control: 0.82*
  Lactate, ratio versus control: 0.45*
  Lysophosphatidylcholine (C16:0), ratio versus control: 0.97*
  Uric acid, ratio versus control: 0.92
[5]
  3-Hydroxybutyrate, ratio versus control: 1.55*
  Leucine, ratio versus control: 1.44*
  Valine, ratio versus control: 1.24*
[6]
  4-Hydroxy-3-methoxyphenylglycol (HMPG), ratio versus control: 0.67*
  Glucose, ratio versus control: 0.87*
  Lactate, ratio versus control: 0.61*
  Malate, ratio versus control: 0.66*
  Metanephrine, ratio versus control: 0.26*
  Pyruvate, ratio versus control: 0.33*
  Uric acid, ratio versus control: 0.64*
[7]
  Docosahexaenoic acid (C22:cis[4,7,10,13,16,19]6), ratio versus control: 1.58*
  Docosapentaenoic acid (C22:cis[7,10,13,16,19]5), ratio versus control: 2.01*
  Palmitic acid (C16:0), ratio versus control: 1.24*
  Phosphatidylcholine (C16:0,C16:0), ratio versus control: 1.2*
  TAG (C16:0,C16:1), ratio versus control: 2.16*
  TAG (C16:0,C18:1,C18:3), ratio versus control: 1.52*
  TAG (C16:0,C18:2), ratio versus control: 1.82*
  TAG (C18:2,C18:2), ratio versus control: 1.5*
  TAG (C18:3,C18:2,C18:1), ratio versus control: 1.63*
  TAG No 059, ratio versus control: 2.21*
[8]
  4-Hydroxyphenylpyruvate, ratio versus control: 0.62*
  Glycine, ratio versus control: 0.71*
  Lactate, ratio versus control: 0.61*
  Lysophosphatidylcholine (C16:0), ratio versus control: 0.98*
  Uric acid, ratio versus control: 0.64*
[9]
  3-Hydroxybutyrate, ratio versus control: 2.04*
  Galactose, lipid fraction, ratio versus control: 1.21
  Glutamine, ratio versus control: 1.31*
  Isoleucine, ratio versus control: 1.3*
  Leucine, ratio versus control: 1.27*
[10]
  4-Hydroxy-3-methoxyphenylglycol (HMPG), ratio versus control: 0.8
  Glucose, ratio versus control: 0.85*
  Lactate, ratio versus control: 0.46*
  Malate, ratio versus control: 0.55*
  Metanephrine, ratio versus control: 0.38*
  Pyruvate, ratio versus control: 0.36*
  Uric acid, ratio versus control: 0.68*
[11]
  4-Hydroxysphinganine (t18:0, Phytosphingosine), total, ratio versus control: 1.12
  Docosahexaenoic acid (C22:cis[4,7,10,13,16,19]6), ratio versus control: 1.24*
  Docosapentaenoic acid (C22:cis[7,10,13,16,19]5), ratio versus control: 1.76*
  Galactose, lipid fraction, ratio versus control: 1.21
  Phosphatidylcholine (C16:0,C16:0), ratio versus control: 1.07
  Phosphatidylcholine (C16:0,C20:5), ratio versus control: 1.1*
  Phosphatidylcholine (C16:1,C18:2), ratio versus control: 1.07
  Phosphatidylcholine No 02, ratio versus control: 1.31*
  TAG (C16:0,C16:1), ratio versus control: 2.14*
  TAG (C16:0,C18:1,C18:3), ratio versus control: 2.06*
  TAG (C16:0,C18:2), ratio versus control: 1.84*
  TAG (C18:2,C18:3), ratio versus control: 1.93*
  TAG (C18:3,C18:2,C18:1), ratio versus control: 1.27*
  TAG No 059, ratio versus control: 1.48*
[12]
  4-Hydroxyphenylpyruvate, ratio versus control: 0.36*
  Glycine, ratio versus control: 0.86*
  Lactate, ratio versus control: 0.46*
  Lysophosphatidylcholine (C16:0), ratio versus control: 0.97*
  Uric acid, ratio versus control: 0.68*
rat, in vivo
  4-Hydroxysphinganine (t18:0, Phytosphingosine), total, ratio versus control: 1.46*
  Isoleucine, ratio versus control: 1.46*
  Phosphatidylcholine No 02, ratio versus control: 1.17*
  TAG (C16:0,C18:1,C18:3), ratio versus control: 1.41*
  TAG (C18:2,C18:2), ratio versus control: 1.41*
  TAG (C18:2,C18:3), ratio versus control: 1.37*
  Valine, ratio versus control: 1.12*

## C#CCN(C)[C@H](C)Cc1ccccc1 [Selegiline hydrochloride]
[13]
  3-Methoxytyrosine, ratio versus control: 1.38*
  Isoleucine, ratio versus control: 1.18*
[14]
  4-Hydroxy-3-methoxyphenylglycol (HMPG), ratio versus control: 0.3*
  14-Methylhexadecanoic acid, ratio versus control: 1.04
  16-Methylheptadecanoic acid, ratio versus control: 0.55*
  17-Methyloctadecanoic acid, ratio versus control: 0.57*
  Ceramide (d18:1,C24:1), ratio versus control: 0.48*
  Choline plasmalogen No 03, ratio versus control: 0.82
  Homovanillic acid (HVA), ratio versus control: 0.45*
  Isopalmitic acid (C16:0), ratio versus control: 0.69*
  Lactate, ratio versus control: 0.72*
  Myristic acid (C14:0), ratio versus control: 0.97
  Phosphatidylcholine (C16:0, C20:4), ratio versus control: 0.94*
  Phosphatidylcholine No 04, ratio versus control: 0.84
  Pyruvate, ratio versus control: 0.36*
[15]
  3-Hydroxybutyrate, ratio versus control: 1.29 *
  Isoleucine, ratio versus control: 1.18 *
  TAG (C16:0,C18:2), ratio versus control: 1.81 *
[16]
  16-Methylheptadecanoic acid, ratio versus control: 0.55 *
  17-Methyloctadecanoic acid, ratio versus control: 0.57 *
  Ceramide (d18:1,C24:1), ratio versus control: 0.48 *
  Phosphatidylcholine (C16:0, C20:4), ratio versus control: 0.94 *
  Phosphatidylcholine (C18:0, C20:3), ratio versus control: 0.92 *
  Pyruvate, ratio versus control: 0.36 *

## CC(=O)[O-].[Tl+] [Thallium(I) acetate]
Day 7 (m7)
  5-Oxoproline, plasma metabolite ratio versus control: 0.92
  Alanine, plasma metabolite ratio versus control: 0.81
  Arginine (second line of the table), plasma metabolite ratio versus control: 0.90
  Arginine, plasma metabolite ratio versus control: 0.97
  Citrulline, plasma metabolite ratio versus control: 0.84
  Glutamine, plasma metabolite ratio versus control: 0.83
  Proline, plasma metabolite ratio versus control: 0.85
  Tyrosine, plasma metabolite ratio versus control: 0.82
Day 14 (m14)
  5-Oxoproline, plasma metabolite ratio versus control: 0.87
  Alanine, plasma metabolite ratio versus control: 0.95
  Arginine (second line of the table), plasma metabolite ratio versus control: 0.80
  Arginine, plasma metabolite ratio versus control: 0.87
  Citrulline, plasma metabolite ratio versus control: 0.84
  Glutamine, plasma metabolite ratio versus control: 0.77
  Proline, plasma metabolite ratio versus control: 0.80
  Tyrosine, plasma metabolite ratio versus control: 0.90
Day 28 (m28)
  5-Oxoproline, plasma metabolite ratio versus control: 0.83
  Alanine, plasma metabolite ratio versus control: 0.79
  Arginine (second line of the table), plasma metabolite ratio versus control: 0.85
  Arginine, plasma metabolite ratio versus control: 0.84
  Citrulline, plasma metabolite ratio versus control: 0.94
  Glutamine, plasma metabolite ratio versus control: 0.78
  Proline, plasma metabolite ratio versus control: 0.85
  Tyrosine, plasma metabolite ratio versus control: 0.87
plasma, day 7, high dose
  Creatinine, ratio versus control: 1.69
plasma, day 14, high dose
  Creatinine, ratio versus control: 1.50
plasma, day 28, high dose
  Creatinine, ratio versus control: 1.89
